Assay results taken from ChEMBL document CHEMBL2203000, “Discovery of AC710, a Globally Selective Inhibitor of Platelet-Derived Growth Factor Receptor-Family Kinases” (ACS Med Chem Lett, 2012).

What was measured:
[1] = Oral bioavailability in Sprague-Dawley rat plasma at 10 mg/kg by LC-MS/MS analysis; assay type: ADME, organism-based; details: Sprague-Dawley, plasma
[2] = AUC in Sprague-Dawley rat plasma at 10 mg/kg, po by LC-MS/MS analysis; assay type: ADME, organism-based; set-up: dose 10 mg/kg, route oral; details: Sprague-Dawley, plasma
[3] = Clearance in Sprague-Dawley rat plasma at 1 mg/kg, iv and 10 mg/kg, po by LC-MS/MS analysis; assay type: ADME, organism-based
[4] = Aqueous solubility of the compound in water; assay type: physicochemical
Rattus norvegicus [5] = assay: Toxicity in rat assessed as mortality at 800 mg/kg administered for 7 days; assay type: organism-based; set-up: dose 800 mg/kg; details: in vivo, 168 h
Rattus norvegicus [6] = assay: Toxicity in rat assessed as effect on body weight at 800 mg/kg administered for 7 days; assay type: organism-based; set-up: dose 800 mg/kg; details: in vivo, 168 h
[7] = Antitumor activity against mouse M-NFS-60 cells xenografted in CD-1 nude mouse assessed as inhibition of tumor growth at 100 mg/kg, po measured after 4 of tumor implantation; assay type: functional; details: read-out: TGI
[8] = Antitumor activity against mouse M-NFS-60 cells xenografted in CD-1 nude mouse assessed as inhibition of tumor growth at 30 mg/kg, po measured after 4 of tumor implantation; assay type: functional; details: read-out: TGI
Rattus norvegicus [9] = assay: Toxicity in rat at 200 mg/kg administered for 7 days; assay type: organism-based; set-up: dose 200 mg/kg; details: in vivo, 168 h
[10] = AUC in po dosed CD-1 mouse by LC-MS/MS analysis; assay type: ADME, organism-based; details: plasma
Rattus norvegicus [11] = assay: Toxicity in rat assessed as diarrhea at 800 mg/kg administered for 7 days; assay type: organism-based; set-up: dose 800 mg/kg; details: in vivo, 168 h
Cytochrome P450 3A4 = Cytochrome P450 3A4 (Homo sapiens, UniProt P08684); assay: Inhibition of CYP3A4; assay type: ADME
Chain of Cytochrome P450 3A4 (P08684 whole entry): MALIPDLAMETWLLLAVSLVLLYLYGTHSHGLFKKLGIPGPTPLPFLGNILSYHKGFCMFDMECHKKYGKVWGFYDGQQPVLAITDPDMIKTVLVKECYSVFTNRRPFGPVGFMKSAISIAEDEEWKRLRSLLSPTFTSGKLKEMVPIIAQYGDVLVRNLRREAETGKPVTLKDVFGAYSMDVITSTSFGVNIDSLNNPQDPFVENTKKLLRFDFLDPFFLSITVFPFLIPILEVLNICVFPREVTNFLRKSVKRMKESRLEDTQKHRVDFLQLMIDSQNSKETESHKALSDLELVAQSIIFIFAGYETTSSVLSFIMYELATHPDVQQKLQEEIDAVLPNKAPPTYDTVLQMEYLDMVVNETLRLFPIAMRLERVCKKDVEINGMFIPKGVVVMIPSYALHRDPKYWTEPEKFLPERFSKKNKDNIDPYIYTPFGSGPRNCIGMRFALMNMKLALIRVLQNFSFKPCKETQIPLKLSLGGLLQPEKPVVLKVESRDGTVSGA

Cytochrome P450 2C19 = Cytochrome P450 2C19 (Homo sapiens, UniProt P33261); assay: Inhibition of CYP2C19; assay type: ADME
Chain of Cytochrome P450 2C19 (P33261 whole entry): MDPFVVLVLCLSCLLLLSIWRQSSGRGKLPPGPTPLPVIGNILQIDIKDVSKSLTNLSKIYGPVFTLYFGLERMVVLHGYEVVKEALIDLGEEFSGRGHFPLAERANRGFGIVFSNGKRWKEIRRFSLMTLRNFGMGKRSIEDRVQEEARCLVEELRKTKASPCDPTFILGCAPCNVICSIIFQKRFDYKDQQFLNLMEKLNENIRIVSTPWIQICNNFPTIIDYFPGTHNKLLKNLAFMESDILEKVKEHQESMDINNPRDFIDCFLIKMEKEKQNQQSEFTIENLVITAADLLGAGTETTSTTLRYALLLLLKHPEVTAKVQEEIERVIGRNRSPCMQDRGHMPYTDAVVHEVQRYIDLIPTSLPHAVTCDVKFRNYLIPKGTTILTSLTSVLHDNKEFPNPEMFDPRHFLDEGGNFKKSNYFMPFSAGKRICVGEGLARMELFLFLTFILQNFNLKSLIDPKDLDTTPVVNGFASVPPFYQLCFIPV

Cytochrome P450 2D6 = Cytochrome P450 2D6 (Homo sapiens, UniProt P10635); assay: Inhibition of CYP2D6; assay type: ADME
Chain of Cytochrome P450 2D6 (P10635 whole entry): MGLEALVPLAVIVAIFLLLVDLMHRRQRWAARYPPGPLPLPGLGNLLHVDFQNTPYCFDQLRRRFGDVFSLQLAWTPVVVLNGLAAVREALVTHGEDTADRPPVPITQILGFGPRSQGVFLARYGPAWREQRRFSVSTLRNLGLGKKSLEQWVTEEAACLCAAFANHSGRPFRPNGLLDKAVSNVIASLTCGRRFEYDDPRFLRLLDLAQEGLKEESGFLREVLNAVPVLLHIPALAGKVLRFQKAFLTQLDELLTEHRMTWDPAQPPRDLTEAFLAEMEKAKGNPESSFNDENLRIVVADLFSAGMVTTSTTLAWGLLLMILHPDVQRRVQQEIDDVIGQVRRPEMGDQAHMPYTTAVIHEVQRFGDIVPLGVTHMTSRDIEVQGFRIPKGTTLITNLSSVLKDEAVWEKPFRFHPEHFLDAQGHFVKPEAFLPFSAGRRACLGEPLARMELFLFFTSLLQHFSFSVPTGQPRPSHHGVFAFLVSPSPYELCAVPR

Cytochrome P450 1A2 = biological target: T1, Cytochrome P450 1A2 (Homo sapiens, UniProt P05177); assay: Inhibition of CYP1A2; assay type: ADME
T1 sequence (P05177 whole entry): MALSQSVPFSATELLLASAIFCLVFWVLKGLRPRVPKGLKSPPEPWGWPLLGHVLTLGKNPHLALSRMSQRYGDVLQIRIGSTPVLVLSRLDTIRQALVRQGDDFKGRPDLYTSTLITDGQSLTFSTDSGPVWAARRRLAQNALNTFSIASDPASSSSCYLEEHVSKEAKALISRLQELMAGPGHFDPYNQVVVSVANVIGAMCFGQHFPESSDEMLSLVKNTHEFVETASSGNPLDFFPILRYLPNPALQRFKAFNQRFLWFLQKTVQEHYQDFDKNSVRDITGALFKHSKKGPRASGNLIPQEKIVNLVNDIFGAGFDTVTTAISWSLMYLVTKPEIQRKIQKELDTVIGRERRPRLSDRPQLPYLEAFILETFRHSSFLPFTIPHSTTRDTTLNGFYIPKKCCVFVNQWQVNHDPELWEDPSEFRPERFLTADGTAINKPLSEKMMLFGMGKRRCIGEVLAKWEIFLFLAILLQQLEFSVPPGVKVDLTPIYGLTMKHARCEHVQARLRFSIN

Cytochrome P450 2C9 = Cytochrome P450 2C9 (Homo sapiens, UniProt P11712); assay: Inhibition of CYP2C9; assay type: ADME
Chain of Cytochrome P450 2C9 (P11712 whole entry): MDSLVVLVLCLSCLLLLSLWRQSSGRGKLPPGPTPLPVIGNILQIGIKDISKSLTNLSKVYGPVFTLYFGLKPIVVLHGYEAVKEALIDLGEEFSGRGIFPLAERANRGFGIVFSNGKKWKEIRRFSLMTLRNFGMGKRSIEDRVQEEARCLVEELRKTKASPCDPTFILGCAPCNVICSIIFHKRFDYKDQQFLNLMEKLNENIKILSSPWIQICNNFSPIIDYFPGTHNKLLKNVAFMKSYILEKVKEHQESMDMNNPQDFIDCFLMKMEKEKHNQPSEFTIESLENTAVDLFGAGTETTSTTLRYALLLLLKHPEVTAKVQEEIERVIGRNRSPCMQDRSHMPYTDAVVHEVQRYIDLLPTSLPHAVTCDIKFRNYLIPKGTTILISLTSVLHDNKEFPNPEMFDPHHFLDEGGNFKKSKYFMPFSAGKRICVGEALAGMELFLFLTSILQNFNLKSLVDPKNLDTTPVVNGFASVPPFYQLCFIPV

[12] = biological target: T2, Mast/stem cell growth factor receptor Kit (Homo sapiens, UniProt P10721); assay: Binding affinity to KIT expressed in HEK-293 cells; assay type: cell-based, HEK293
T2 sequence (P10721 whole entry): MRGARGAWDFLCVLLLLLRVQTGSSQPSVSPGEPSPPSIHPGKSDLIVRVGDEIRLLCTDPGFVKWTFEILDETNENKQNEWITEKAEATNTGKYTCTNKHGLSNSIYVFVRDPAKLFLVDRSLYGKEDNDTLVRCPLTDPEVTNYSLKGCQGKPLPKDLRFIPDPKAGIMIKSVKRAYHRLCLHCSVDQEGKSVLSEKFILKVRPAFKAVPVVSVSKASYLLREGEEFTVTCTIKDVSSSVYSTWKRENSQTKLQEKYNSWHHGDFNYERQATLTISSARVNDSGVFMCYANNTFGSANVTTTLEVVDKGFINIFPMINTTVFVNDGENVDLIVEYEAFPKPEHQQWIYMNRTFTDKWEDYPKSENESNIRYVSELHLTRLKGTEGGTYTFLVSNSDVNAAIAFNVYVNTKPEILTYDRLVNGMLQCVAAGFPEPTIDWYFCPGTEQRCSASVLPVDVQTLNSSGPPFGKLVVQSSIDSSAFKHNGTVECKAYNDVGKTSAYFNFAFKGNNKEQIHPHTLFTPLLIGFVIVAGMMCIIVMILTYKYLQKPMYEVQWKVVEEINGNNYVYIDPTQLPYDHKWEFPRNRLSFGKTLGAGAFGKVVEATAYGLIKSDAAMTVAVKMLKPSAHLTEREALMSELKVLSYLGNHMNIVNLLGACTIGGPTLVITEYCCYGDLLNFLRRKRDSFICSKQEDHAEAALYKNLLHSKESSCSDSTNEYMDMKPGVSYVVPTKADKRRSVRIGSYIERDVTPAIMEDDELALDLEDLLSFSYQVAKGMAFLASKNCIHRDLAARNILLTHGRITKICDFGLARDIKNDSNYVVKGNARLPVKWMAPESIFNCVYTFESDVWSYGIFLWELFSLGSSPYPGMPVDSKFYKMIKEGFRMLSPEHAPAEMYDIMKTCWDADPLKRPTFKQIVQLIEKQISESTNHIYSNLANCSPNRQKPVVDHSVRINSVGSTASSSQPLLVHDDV

[13] = biological target: T2, Mast/stem cell growth factor receptor Kit; assay: Inhibition of KIT phosphorylation in human H526 cells; assay type: cell-based

For `CCN1CCC(c2ccc(C(=O)Nc3ccc(NC(=O)Nc4cc(C(C)(C)C)on4)cc3)nc2)CC1`, the bioavailability [1] was 9.9%, the AUC [2] was 0.9 µM·h and the clearance [3] was 37.6 mL/min/kg.
`CCN1C(C)(C)CC(Oc2ccc(C(=O)Nc3ccc(NC(=O)Nc4cc(C(C)(C)C)on4)cc3)nc2)CC1(C)C.CS(=O)(=O)O` showed a solubility [4] of over 1000 µg/mL.
For `CN1C(C)(C)CC(Oc2ccc(C(=O)Nc3ccc(NC(=O)Nc4cc(C(C)(C)C)on4)cc3)nc2)CC1(C)C`, the Activity (Rattus norvegicus [5]) was “Toxic”, the Activity (Rattus norvegicus [6]) was “Toxic” and the inhibition in vivo at 100 mg/kg [7] was 92%. The inhibition in vivo at 30 mg/kg [8] was 82%, the Activity (Rattus norvegicus [9]) was “Non-toxic” and the AUC [10] was 65.8 µM·h. For the same compound, the Activity (Rattus norvegicus [11]) was “Toxic”, the IC50 (Cytochrome P450 3A4) was over 40 µM and the IC50 (Cytochrome P450 2C19) was over 40 µM. The IC50 (Cytochrome P450 2D6) was over 40 µM, the IC50 (Cytochrome P450 1A2) was over 40 µM and the IC50 (Cytochrome P450 2C9) was over 40 µM. The Kd [12] was 0.0011 µM, the IC50 [13] was 0.008 µM and the bioavailability [1] was 31.5%. It also gave an AUC [2] of 9.1 µM·h and a clearance [3] of 10.9 mL/min/kg.
`CN1C(C)(C)CC(Oc2ccc(C(=O)Nc3ccc(NC(=O)Nc4cc(C(C)(C)C)on4)cc3)nc2)CC1(C)C.CS(=O)(=O)O` showed a solubility [4] of over 1000 µg/mL.
Compound `CC(C)N1CCC(Oc2ccc(C(=O)Nc3ccc(NC(=O)Nc4cc(C(C)(C)C)on4)cc3)nc2)CC1` has a bioavailability [1] of 17.5%, an AUC [2] of 3.5 µM·h and a clearance [3] of 16 mL/min/kg.
